Where two headings read alike, the source gives them in different places.
How the values were obtained:
[1] = tested on: bone marrow polychromatic erythrocytes; format: in vivo, mice
Description: This test was carried out following standard protocols, [5]. […] Animals were sacrificed 24 h later and the bone marrow from both femurs was flushed out using 2 mL of saline and centrifuged for 5 min at 3000 rpm. The supernatant was discarded, and the pellet was re-suspended in 0.3 mL of saline. Of this smears were made on glass slides. The slides were fixed with methanol and stained with 10% Wright–Giemsa stain. Cells were blindly scored using a light microscope at 100 X magnification. For the analysis of micronucleated cells, 1000 polychromatic erythrocytes (PCE) per animal were scored. In order to assess the cytotoxic effects of compounds, the ratio of PCE to normochromatic erythrocytes (NCE) was determined in 1000 erythrocytes, [5]. The results are presented as the mean number of micronucleated polychromatic erythrocytes (MNPCE) or the ratio PCE:NCE in individual mice (two smears per animal)±SEM for five animals per group (Table 3).

normotensive rats = assay: Cardiovascular response in normotensive conscious rats (tail cuff method); format: in vivo; conditions: 50 and 80 mg/kg, p.o.
Description: The hypotensive activity was determined using a standard protocol of Avila-Villarreal et al.. This study was conducted in normotensive rats. […] Systolic and diastolic blood pressure as well as heart rate were recorded before and after treatment at 0, 1, 3, 5 and 7 h by the tail cuff method using a Panlab non-invasive blood pressure system for rodents and dogs (Harvard Apparatus). Percent of reduction in heart rate (HR), systolic blood pressure (SBP) or diastolic blood pressure (DBP) were calculated using diltiazem as control (Fig. 2).

[2] = tested on: brine shrimp larvae (Artemia salina L.); assay: Artemia saline lethality test; format: in vivo
[3] = Acute toxicity in mice by the Lorke method; conditions: male, ICR, mouse, in vivo, ip
Description: (§1) Experiments were performed on ICR male mice by the Lorke method. Doses were selected according this method. In both phases, mice were observed daily for 14 days for mortality, toxic effects and behavioral changes. Restlessness, respiratory distress, seizures, diarrhea, motor activity, posture and reflexes were qualitatively determined. Body weight was also monitored. The internal organs (including the stomach, heart, lung, liver, and kidneys) were removed at the end of experiment and visually examined for lesions.

ICR male mice = assay: Acute toxicity in mice by the Lorke method; conditions: for Dead mice: i.p., dead/treated, observed 14 days
Description: as §1

[4] = mice, i.p. (LIA, lidocaine 100 mg/kg; cyclophosphamide 40 mg/kg), 24 h, mean±SEM, five animals

O=P1(N(CCCl)CCCl)NCCCO1 (stereo not drawn) [Cyclophosphamide, reference compound]
MNPCE per 1000 PCE [1, 4]: 82.6±1.8
PCE:NCE [1, 4]: 14±0.3

CC1CCN(CC(=O)Nc2c(Cl)cccc2Cl)CC1 [LIA, N-(2,6-dichlorophenyl)-2-(4-methyl-1-piperidinyl)acetamide]
Cardiovascular responses (heart rate, systolic and diastolic blood pressure; in words) (normotensive rats): does not modify cardiovascular responses
MNPCE per 1000 PCE ([1]; male, ICR, mouse, in vivo): 5.8±1.9 ^⁎^, ^#
PCE:NCE ([1]; male, ICR, mouse, in vivo): 20.7±1.6
Genotoxicity in mice (in words) ([1]; mouse, in vivo): not genotoxic
LC50 ([2]; Artemia saline L., 24 h, 100-1000 ppm in triplicate): 335.1 ±85.7 ppm
Toxicity in Brine Ship (in words) ([2]; in vivo): not toxic
LD50 at 14 days [3]: 800 mg/kg
Dead mice (ICR male mice; Phase I, 10 mg/kg): 0/3
Dead mice (ICR male mice; Phase I, 100 mg/kg): 0/3
Dead mice (ICR male mice; Phase I, 1000 mg/kg): 3/3
Dead mice (ICR male mice; Phase II, 140 mg/kg): 0/3
Dead mice (ICR male mice; Phase II, 225 mg/kg): 0/3
Dead mice (ICR male mice; Phase II, 370 mg/kg): 0/3
Dead mice (ICR male mice; Phase II, 600 mg/kg): 3/3
Macroscopic damage of internal organs (stomach, heart, lung, liver, kidneys) (ICR male mice; mice, visual examination at the end of experiment (14 days)): Neither LIA nor lidocaine produced visible macroscopically damage
Toxicity in mice (in words) (ICR male mice; mouse, in vivo): not toxic

— publication PMC5156471, “Complementary pharmacological and toxicological characterization data on the pharmacological profile of N-(2,6-dichlorophenyl)-2-(4-methyl-1-piperidinyl) acetamide” (Data in Brief, 2016)
